Results: ChEMBL document CHEMBL1137910, “Synthesis and biological activity of novel antibacterial quinazolines” (2004)

Experiments:
Type in all cases: functional
[1] = test system: Bacillus cereus; assay: Ability to inhibit growth of Bacillus cereus MTCC 1272 was determined
[2] = test system: Bacillus subtilis; assay: Ability to inhibit growth of Bacillus subtilis MTCC 121 was determined
[3] = test system: Pseudomonas aeruginosa; assay: Ability to inhibit growth of Pseudomonas aeruginosa MTCC 1034 was determined
[4] = test system: Enterococcus faecalis; assay: Ability to inhibit growth of Enterococcus faecalis MTCC 439 was determined
[5] = test system: Staphylococcus aureus; assay: Ability to inhibit growth of Staphylococcus aureus MTCC1430 was determined
[6] = test system: Klebsiella pneumoniae; assay: Ability to inhibit growth of Klebsiella pneumoniae MTCC 109 was determined
[7] = test system: Escherichia coli; assay: Ability to inhibit growth of Escherichia coli MTCC 42 was determined
[8] = test system: Proteus vulgaris; assay: Ability to inhibit growth of Proteus vulgaris MTCC744 was determined
[9] = test system: Shigella sonnei; assay: Ability to inhibit growth of Shigella sonnei MTCC 2957 was determined

Row | SMILES | Growth Inhibition [1] [mm] | Growth Inhibition [2] [mm] | Growth Inhibition [3] [mm] | Growth Inhibition [4] [mm] | Growth Inhibition [5] [mm] | Growth Inhibition [6] [mm] | Growth Inhibition [7] [mm] | Growth Inhibition [8] [mm] | Growth Inhibition [9] [mm]
1 | COc1ccc(-c2nc(N3CCCCC3)nc3ccc(C)cc23)cc1 | 16 | 21 | 15 | 16 | 19 | 20 | 19 | 18 | 21
2 | Cc1ccc2nc(N3CCOCC3)nc(-c3ccccc3)c2c1 | 15 | 16 | 19 | 16 | 12 | 19 | 21 | 18 | 20
3 | O=C(O)c1cn(C2CC2)c2cc(N3CCNCC3)c(F)cc2c1=O [CIPROFLOXACIN] | 17 | 22 | 18 | 16 | 21 | 18 | 22 | 19 | 21
4 | COc1ccc(-c2nc(-c3ccccc3)nc3ccc(C)cc23)cc1 | 13 | 12 | 16 | 12 | 0 | 17 | 16 | 15 | 15
5 | Cc1ccc2nc(N3CCOCC3)nc(-c3ccc(N(C)C)cc3)c2c1 | 19 | 18 | 16 | 17 | 22 | 20 | 20 | 18 | 19
6 | Cc1ccc2nc(-c3ccccc3)nc(-c3ccc(N(C)C)cc3)c2c1 | 14 | 15 | 18 | 12 | 11 | 19 | 18 | 17 | 16
